Nine molecules from patent US7115642B2, “Substituted diphenyl isoxazoles, pyrazoles and oxadiazoles useful for treating HCV infection” (priority 2003, dated 2006) can be followed below.

Like-named read-outs stand apart in the source and are kept apart here.

The subject of data set [1] is HCV replicon (5-2 Luc replicon-comprising cells). Put plainly: HCV replicon assay (luciferase). The data set is classed as cell-based, Hepatitis C virus. Conditions: Hepatitis C virus, read-out: Replicon IC50. The gist of the method: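 Readout: IC50 from a 50% drop in luciferase signal (Bright-Glo, luminometer), scored + (≤10 μM) or − (>10 μM). Compounds added at various concentrations to 5-2 Luc replicon cells (Huh7 background), pre-incubated 24 h, then incubated 24 h more before reading.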

The subject of data set [2] is HCV nonstructural protein NS5A or NS3 in 9–13 replicon cells. Put plainly: Quantitative Western blot assay. The data set is classed as cell-based, Hepatitis C virus. Conditions: Hepatitis C virus, read-out: Western IC50. The procedure:
Alternatively, the inhibitory activity of the compounds can be confirmed using a quantitative Western immunoblot assay utilizing antibodies specific for HCV non-structural proteins, such as NS3, NS4A NS5A and NS5B. In one embodiment of this assay, replicon cells are treated with varying concentrations of test compound to determine the concentration of test compound that yields a 50% reduction in the amount of a non-structural protein produced as compared to a control sample (IC50). A single non-structural protein may be quantified or multiple non-structural proteins may be quantified. Antibodies suitable for carrying out such immunoblot assays are available commercially (e.g., from BIODESIGN International, Saco, Me.).
Certain exemplary compounds of the invention were also tested for their ability to inhibit HCV replication using a quantitative Western blot analysis with antibodies specific for the HCV nonstructural protein NS5A or NS3. Actively dividing 9–13 replicon cells were seeded into Swell plates at a density of 1×10^5 cells/well in a volume of 2 ml/well and incubated at 37° C. and 5% CO2 for 24 hours. Various concentrations of test compounds (in a volume of 10 ul) were added to the wells and the cells incubated for another 48 hours. Protein samples were prepared from the cultured cells, resolved on a SDS-PAGE gel and transferred to a nitrocellulose membrane. The membrane was blocked with 5% non-fat milk in PBS for 1 hour at room temperature. Primary antibody (anti NS5A antibody; BIODESIGN International, Saco, Me. or anti NS3 antibody, Rigel) incubation was performed for 1 hour at room temperature, after which the membrane was washed 3 times (for 15 min per time) with PBST (PBS plus 0.1% Tween 20). Horseradish peroxidase conjugated secondary antibody incubation was performed for 1 hour at room temperature and the membrane was washed 3 times (for 15 min per time) with PBST. The membrane was then soaked in substrate solution (Pierce) and exposed to a film or quantified using an imager. In this assay, the amount of test compound that yielded a 50% reduction in the amount of NS5A or NS3 protein translated as compared to a control sample (IC50) was determined.
In TABLE 1, a value of “+” indicates an IC50 of 10 μM or less in the specified assay; a value of “−” indicates an IC50 of greater than 10 μM in the specified assay.

A short description of data set [3]: Cytotoxicity assay (Cell Titer Glo). The data set is classed as cell-based. Conditions: human; 48 hr with compound, ATP-dependent Cell Titer Glo assay; read-out: IC50 in cytotoxicity assay (number of viable cells). An outline of the steps:
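HCV replicon-bearing liver cells (5-2 Luc, 9–13 or Huh-7) grown 24 h at 37° C, then exposed to a range of compound concentrations for 48 h at 37° C. Viable cell number by ATP-dependent luminescence (Cell Titer Glo).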

Where [4] appears, read: 5-2 Luc replicon cells, luciferase readout.
Where [5] appears, read: 9–13 replicon cells, NS5A or NS3 Western blot.

As to `Cc1ccc(F)c(-c2cc(-c3cccc(NC(=O)C(Cl)Cl)c3)on2)c1Cl` [Compound 15, 2,2-Dichloro-N-[3-[3-(2-chloro-6-fluoro-3-methylphenyl)-5-isoxazolyl]phenyl]Acetamide], the IC50 in data set [1] (setting [4]) and in data set [2] (setting [5]) was less than 10 µM in each case. Further, the concentration for half-maximal inhibition (IC50) at 48 h in data set [3] was greater than 10 µM.
Take `O=C(Nc1cccc(-c2cc(-c3c(F)cccc3Cl)no2)c1)C(Cl)Cl` [Compound 27, 2,2-Dichloro-N-[3-[3-(2-chloro-6-fluorophenyl)-5-isoxazolyl]phenyl]Acetamide]: the IC50 in data set [1] (setting [4]) and in data set [2] (setting [5]) was less than 10 µM each time. The IC50 at 48 h in data set [3] was greater than 5 µM.
On to `Cc1cccc(-c2cc(-c3cccc(NC(=O)C(Cl)Cl)c3)on2)c1C` [Compound 163, 2,2-Dichloro-N-[3-[3-(2,3-dimethylphenyl)-5-isoxazolyl]phenyl]Acetamide], for which the IC50 in data set [1] (setting [4]) and in data set [2] (setting [5]) was greater than 10 µM in each case. Besides, the IC50 at 48 h in data set [3] is greater than 10 µM.
As for `O=C(Nc1cccc(-c2cc(-c3cccc(Cl)c3Cl)no2)c1)C(Cl)Cl` [Compound 3, 2,2-Dichloro-N-[3-[3-(2,3-dichlorophenyl)-5-isoxazolyl]phenyl]Acetamide], the IC50 in data set [1] (setting [4]) was greater than 10 µM; in data set [2] (setting [5]), less than 10 µM. In data set [3], the IC50 at 48 h was greater than 10 µM.
Take `O=C(CI)Nc1cccc(-c2cc(-c3c(Cl)cccc3Cl)no2)c1` [Compound 101, 2-Iodo-N-[3-[3-(2,6-dichlorophenyl)-5-isoxazolyl]phenyl]Acetamide]: the IC50 in data set [1] (setting [4]) is less than 10 µM; in data set [2] (setting [5]) it was greater than 10 µM. Besides, the IC50 at 48 h in data set [3] was greater than 10 µM.
In turn, `O=C(Nc1cccc(-c2cc(-c3c(Cl)cccc3Cl)no2)c1)C(Cl)Cl` [Compound 9, 2,2-Dichloro-N-[3-[3-(2,6-dichlorophenyl)-5-isoxazolyl]phenyl]Acetamide] registered a melting point of 167 °C. In addition, the IC50 in data set [1] was less than 10 µM. For the same molecule, in data set [2], the IC50 was less than 10 µM.
As for `O=C(Nc1cc(-c2cc(-c3c(Cl)cccc3Cl)no2)ccc1F)C(Cl)Cl` [Compound 1, 2,2-Dichloro-N-[3-[3-(2,6-dichlorophenyl)-5-isoxazolyl]-6-fluorophenyl]Acetamide], the IC50 in data set [1] (setting [4]) and in data set [2] (setting [5]) was less than 10 µM in each case. The IC50 at 48 h in data set [3] was greater than 10 µM.
On to `O=C(Nc1ccc(F)c(-c2cc(-c3c(Cl)cccc3Cl)no2)c1)C(Cl)Cl` [Compound 13, 2,2-Dichloro-N-[3-[3-(2,6-dichlorophenyl)-5-isoxazolyl]4-fluorophenyl]Acetamide], for which the IC50 in data set [1] (setting [4]) and in data set [2] (setting [5]) was less than 10 µM throughout. In data set [3], the IC50 at 48 h was greater than 10 µM.
On to `O=C(Nc1cccc(-c2cc(-c3c(Cl)cccc3Cl)on2)c1)C(Cl)Cl` [Compound 5, 2,2-Dichloro-N-[3-[5-(2,6-dichlorophenyl)-3-isoxazolyl]phenyl]Acetamide], for which the IC50 in data set [1] (setting [4]) and in data set [2] (setting [5]) was less than 10 µM throughout. In addition, the IC50 at 48 h in data set [3] is greater than 10 µM.
